Source: PubChem BioAssay (NCI)
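Step 1: Grow cells in 96-well plates. Step 2: Expose to compound for 48 hours at 5 concentrations. Step 3: Interpolate endpoints linearly; if unreached, use highest concentration. Abbreviation: GI50, concentration required for 50% inhibition of growth. At the TGI there is no net growth.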

Assays:
Assay in all cases: NCI anticancer screen, dose series, 48 h
NCI-H460 lung = test system: NCI-H460 lung
UACC-257 melanoma = test system: UACC-257 melanoma
SNB-75 CNS = test system: SNB-75 CNS
SF-268 CNS = test system: SF-268 CNS
MDA-MB-231 breast = test system: MDA-MB-231 breast
UO-31 renal = test system: UO-31 renal
K-562 leukemia = test system: K-562 leukemia
SW-620 colon = test system: SW-620 colon
U251 CNS = test system: U251 CNS
NCI/ADR-RES ovarian = test system: NCI/ADR-RES ovarian
A498 renal = test system: A498 renal

For `CCOc1ncn(-c2ccc(NC(=S)Nc3cccc(O)c3)cc2)n1`, the TGI (NCI-H460 lung) was over 100 µM, the TGI (UACC-257 melanoma) was over 100 µM and the TGI (SNB-75 CNS) was over 100 µM. The TGI (SF-268 CNS) was over 100 µM, the TGI (MDA-MB-231 breast) was over 100 µM and the TGI (UO-31 renal) was over 100 µM. The TGI (K-562 leukemia) was over 100 µM, the TGI (SW-620 colon) was over 100 µM and the TGI (U251 CNS) was over 100 µM.

In the case of `ClCCN(CCCl)Cc1ccc(Nc2ccnc3cc(Cl)ccc23)cc1`, the GI50 (NCI-H460 lung) is reported as 402 nM, the TGI (NCI-H460 lung) is reported as 10.7 µM and the GI50 (UACC-257 melanoma) is reported as 1900 nM. The TGI (UACC-257 melanoma) was 5.71 µM, the GI50 (SNB-75 CNS) was 1340 nM and the TGI (SNB-75 CNS) was 3.72 µM. It also gave a GI50 (SF-268 CNS) of 1180 nM, a TGI (SF-268 CNS) of 5.68 µM and a GI50 (NCI/ADR-RES ovarian) of 2170 nM. For the same compound, the TGI (NCI/ADR-RES ovarian) was 7.36 µM, the GI50 (MDA-MB-231 breast) was 1660 nM and the TGI (MDA-MB-231 breast) was 3.49 µM. It also gave a GI50 (SW-620 colon) of 1350 nM and a TGI (SW-620 colon) of 14.6 µM.

Compound `COc1ccc(C(=O)C2CC3(CCC2(O)c2ccc(OC)cc2)CC(=O)Nc2ccccc2C3=O)cc1` (stereo not given) has a TGI (A498 renal) of over 100 µM, a TGI (NCI-H460 lung) of over 100 µM and a TGI (UACC-257 melanoma) of over 100 µM. It also gave a TGI (SNB-75 CNS) of over 100 µM, a TGI (SF-268 CNS) of over 100 µM and a TGI (NCI/ADR-RES ovarian) of over 100 µM. It also gave a TGI (MDA-MB-231 breast) of over 100 µM, a TGI (UO-31 renal) of over 100 µM and a TGI (K-562 leukemia) of over 100 µM. The TGI (SW-620 colon) was over 100 µM and the TGI (U251 CNS) was over 100 µM.

`CC1(C)CCc2c(cc3c(c2O)CCC(C)(C)O3)O1` showed a TGI (A498 renal) of over 100 µM, a TGI (NCI-H460 lung) of over 100 µM and a TGI (UACC-257 melanoma) of over 100 µM. It also gave a TGI (SNB-75 CNS) of over 100 µM, a TGI (SF-268 CNS) of over 100 µM and a TGI (NCI/ADR-RES ovarian) of over 100 µM. For the same compound, the TGI (MDA-MB-231 breast) was over 100 µM, the TGI (UO-31 renal) was over 100 µM and the TGI (K-562 leukemia) was over 100 µM. The TGI (SW-620 colon) was over 100 µM and the TGI (U251 CNS) was over 100 µM.

For `Cc1ccc(OP2(=O)Oc3ccc4ccccc4c3CN2c2ccc(Cl)cc2)cc1C` (stereo not given), the TGI (A498 renal) was over 100 µM, the TGI (NCI-H460 lung) was over 100 µM and the TGI (UACC-257 melanoma) was over 100 µM. The TGI (SNB-75 CNS) was over 100 µM, the TGI (SF-268 CNS) was over 100 µM and the TGI (NCI/ADR-RES ovarian) was over 100 µM. It also gave a TGI (UO-31 renal) of over 100 µM, a TGI (K-562 leukemia) of over 100 µM and a TGI (SW-620 colon) of over 100 µM. For the same compound, the TGI (U251 CNS) was over 100 µM.

Work on `Nc1cc2c(cc1[N+](=O)[O-])[nH]c1c(-c3ccccc3)nccc12` yielded a TGI (A498 renal) of 79.7 µM, a TGI (NCI-H460 lung) of 39.2 µM and a TGI (UACC-257 melanoma) of 42.4 µM. For the same compound, the TGI (SNB-75 CNS) was 55.7 µM, the TGI (SF-268 CNS) was over 100 µM and the TGI (NCI/ADR-RES ovarian) was 41.4 µM. The TGI (UO-31 renal) was 28.9 µM, the TGI (K-562 leukemia) was over 100 µM and the TGI (SW-620 colon) was over 81.5 µM. For the same compound, the TGI (U251 CNS) was 55.4 µM.

In the case of `C=C/C(C)=C/[C@H](C)C(=O)C[C@H](O)CC1CC(=O)NC(=O)C1`, the TGI (A498 renal) is reported as over 100 µM, the TGI (NCI-H460 lung) is reported as over 100 µM and the TGI (UACC-257 melanoma) is reported as 97.9 µM. The TGI (SNB-75 CNS) was over 100 µM, the TGI (SF-268 CNS) was over 100 µM and the TGI (NCI/ADR-RES ovarian) was over 100 µM. It also gave a TGI (UO-31 renal) of over 100 µM, a TGI (K-562 leukemia) of over 100 µM and a TGI (SW-620 colon) of over 100 µM. The TGI (U251 CNS) was over 100 µM.

`COC[C@H]1C(=O)NCC(=O)N2NCCC[C@H]2C(=O)N(O)[C@H](C)C(=O)O[C@@H](C(C)C)[C@H](NC(=O)[C@](C)(O)[C@]2(O)CC[C@@H](CC(C)C)[C@H](C)O2)C(=O)N2NCCC[C@@H]2C(=O)N1O` showed a GI50 (NCI-H460 lung) of under 10 nM, a TGI (NCI-H460 lung) of 0.0125 µM and a GI50 (UACC-257 melanoma) of 15 nM. The TGI (UACC-257 melanoma) was 0.0292 µM, the GI50 (SNB-75 CNS) was under 10 nM and the TGI (SNB-75 CNS) was 0.011 µM. The GI50 (MDA-MB-231 breast) was under 11.1 nM, the TGI (MDA-MB-231 breast) was 0.0432 µM and the GI50 (UO-31 renal) was 19.2 nM. It also gave a TGI (UO-31 renal) of 0.0458 µM, a GI50 (U251 CNS) of under 10 nM and a TGI (U251 CNS) of 0.0216 µM.

Work on `CO/C(=N\N=C(/C)C(F)(F)F)c1ccncc1` yielded a TGI (A498 renal) of over 100 µM, a TGI (NCI-H460 lung) of over 100 µM and a TGI (SNB-75 CNS) of over 100 µM. It also gave a TGI (NCI/ADR-RES ovarian) of over 100 µM, a TGI (MDA-MB-231 breast) of over 100 µM and a TGI (UO-31 renal) of over 100 µM. The TGI (K-562 leukemia) was over 100 µM and the TGI (U251 CNS) was over 100 µM.
